# How the values were obtained:
# [1] = system: fibroblasts grown in a 3D matrix; experiment: Fibroblasts grown in a 3D matrix, migration and proliferation; type: cell-based; conditions: 200 ppm NO for 8 hours per day for 3 days; compared with air or conventional incubator
# [2] = system: Mycobacterium; experiment: Bacteriocidal time study, 200 ppm gNO, saline suspension; type: cell-based, M. smegmatis
# Procedure: (§1) Following the dose and time ranging studies, a series of experiments were performed to determine the time required to effectively induce a bacteriocidal effect with 200 parts per million of gNO, a concentration just above the dose used in the dose-ranging study, on a representative collection of drug resistant gram-positive and gram-negative strains of bacteria associated with clinical infection. A successful bacteriocidal effect was defined as a decrease in bacteria greater than 3 log10 cfu/ml. Further, C. albicans, Methicillin Resistant S. aureus (MRSA), a particularly resistant strain of P. aeruginosa from a cystic fibrosis patient, Group B Streptococcus, and M. smegmatis were also included to see if yeast, multi-drug resistant strains of bacteria, and actinomycetes have a similar response. The drug-resistant bacteria represent a variety of pathogens that contribute to both respiratory and wound infections.
# (§2) For these experiments, saline was selected as a suspension media because it would not mask the direct effect of gNO as a bacteriocidal, whereas fully supplemented growth medium might introduce external variables (e.g., buffer or react with gNO). Other media might also provide metabolites and replenish nutrients that produce enzymes that protect bacteria from oxidative and nitrosative damage, thereby masking the effect of gNO. […] In saline, the colonies were static but remained viable. This is similar to the approach of Webert and Jean's use of animal models. Webert K E, et al (2000), Effects of inhaled nitric oxide in a rat model of Pseudomonas aeruginosa pneumonia, Crit. Care Med, 28(7):2397-2405 and Jean D, et al., (2002) Beneficial effects of nitric oxide inhalation on pulmonary bacterial clearance, Critical Care Medicine. 30(2):442-7.
# The latent period was then followed by an abrupt death of all cells. Gram negative and gram positive bacteria, antibiotic resistant bacterial strains, yeast and mycobacteria were all susceptible to 200 ppm gNO. Of importance, is the observation that the two drug resistant bacteria strains were also susceptible. […]
# [3] = system: full thickness infected wound; experiment: Histology of full thickness infected wound biopsies; type: in vivo, rabbits; conditions: 200 ppm gNO
# Procedure: FIG. 13 illustrates histology analysis of full thickness infected wound exposed to 200 ppm gNO for 24 hours.
# In vivo studies in animal models have further shown the beneficial effects of nitric oxide gas. In an animal model, full-thickness cutaneous wounds (Set A: four rabbits with eight 8.0 mm punch biopsies & Set B: 4 rabbits with two 50×15 mm wounds) were made on each side of dorsal midline and infected with equal volume of Staphylococcus aureus suspension on day zero. On day one, treated groups in A and B were respectively exposed to 200 and 400 ppm gNO for total of three days. Set A was exposed for two 4-hour sessions, interrupted by 1-hour of rest, inside a specialized restraining exposure chamber. A 24-hour continuous delivery model was used for animals in Set B by design of a specialized wound patch. Control groups were only exposed to medical grade air with corresponding flow rate. Four random sample punch biopsies (8.0 mm) were collected on post wounding days 3 and analyzed for bacterial content. Another four punch biopsies from both wound and normal skin tissue were collected for fibroblast viability analysis and toxic effects of gNO.
# FIG. 13 presents histological analysis of tissue blocks prepared on wound punch biopsies from animals in treated and control groups. Samples from the control group show more advanced neutrophil infiltration and so a higher degree of inflammatory reaction. […] Wounds treated with gNO also show a layer of scab closing on the wound, but control wounds remain open for longer period of time.
# [4] = system: collagen mRNA; experiment: mRNA expression after gNO exposure; type: cell-based
# Source text: Rather than applying exogenous collagenase for enzymatic debridement of necrotic tissue, exposing a wound with necrotic tissue to exogenous NO gas to upregulate endogenous collagenase may be more beneficial. When endogenous collagenase is released by the cell, it automatically releases TIMP's (tissue inhibitor of metalloproteinase). This ensures that the matrix degradation is coordinated and allows the establishment of sharp geographical boundaries of collagenolytic activity and the protection of areas of connective tissue from the activity of the enzyme. In contrast, use of exogenous collagenase material to debride a wound confers no protection to specific areas of the wound as it is active on every cell that comes in contact with it whether or not the effect is desired.
# Preferably, after the exposure of the wound to high concentration of nitric oxide gas for a first treatment period (e.g., 5-8 hours per day), the necrotic tissue may be mechanically removed easily and the concentration of nitric oxide gas can be decreased for a second treatment period. The low concentration of nitric oxide gas (e.g., at 5-20 ppm) delivered for the second treatment period may upregulate the expression of collagen mRNA leading to synthesis of new collagen to aid in the closure of the wound. […] The second treatment period may be for a period 7-16 hours per day. […]
# [5] = system: all microorganisms tested; experiment: Bacteriocidal time study, 200 ppm gNO, saline suspension, all organisms together; type: cell-based
# Procedure: as §1, §2
# The latent period was then followed by an abrupt death of all cells. Gram negative and gram positive bacteria, antibiotic resistant bacterial strains, yeast and mycobacteria were all susceptible to 200 ppm gNO. Of importance, is the observation that the two drug resistant bacteria strains were also susceptible.
# [6] = average of the 13 bacteria listed above it, without Mycobacterium
smiles,measurement,setting,value
"[N]=O [gNO, nitric oxide]",migration of fibroblasts,[1],does not appear to affect
same,proliferation of fibroblasts,[1],does not appear to interfere
same,LD100,[2],10 h
same,Latent Period*,[2],7 h
same,−2.5 Log10,[2]; time to −2.5 log10 cfu/ml,9.2 hrs
same,"toxic effects (cellular debris due to apoptosis), histology",[3],No toxic effects
same,"healing process, histology",[3]; compared with control wounds,healthier healing process
same,neutrophil infiltration in wound,[3]; compared with control wounds,lower level of neutrophil concentration
same,collagen mRNA expression,[4]; fibroblast exposed to 5 ppm of NO,increased collagen mRNA expression
same,collagen expression,"[4]; high concentration, 200 ppm gNO, 24 hours and 48 hours",possible inhibition of collagen expression
same,bacteriocidal effect,[5],completely bacteriocidal effect
same,"LD100, Average",[5]; [6],4.77 h
same,"Latent Period*, Average",[5]; [6],2.77 h
same,"−2.5 Log10, Average",[5]; [6],3.82 hrs
same,reduction in cfu/ml,[5]; every bacteria challenged,at least a three log10 reduction

# — patent US8795222B2, “Device and method for treatment of surface infections with nitric oxide” (Pulmonox Technologies Corp., priority 2000, dated 2014)
